Data reported in the kinase profiling compilation of Christmann-Franck et al. (2016).

How the values were obtained:
Test in all cases: Caliper, Mobility shift assay off-chip
[1] = target: CSK (human) (UniProt P41240)
[2] = target: IKBKB (human) (UniProt O14920)
[3] = target: DDR2 (human) (UniProt Q16832)
[4] = target: EPHB3 (human) (UniProt P54753)
[5] = target: PAK7 (human) (UniProt Q9P286)
[6] = target: AKT2 (human) (UniProt P31751)
[7] = target: YES1 (human) (UniProt P07947)
[8] = target: ACVR1B (human) (UniProt P36896)
[9] = target: PKN2 (human) (UniProt Q16513)
[10] = target: NLK (human) (UniProt Q9UBE8)
[11] = test system: FGFR2 (human), P21802 [N549H]
[12] = target: PDGFRA (human) (UniProt P16234)
[13] = target: INSR (human) (UniProt P06213)
[14] = test system: KIT (human), P10721 [V654A]
[15] = target: CAMK2D (human) (UniProt Q13557)
[16] = target: EPHB2 (human) (UniProt P29323)
[17] = target: CDK5 CDK5R1 p25 (human) (UniProt Q15078+Q00535)
[18] = target: EPHA8 (human) (UniProt P29322)
[19] = target: PAK2 (human) (UniProt Q13177)
[20] = target: HIPK2 (human) (UniProt Q9H2X6)
[21] = target: IRAK4 (human) (UniProt Q9NWZ3)
[22] = target: MUSK (human) (UniProt O15146)
[23] = target: MAP2K7 (human) (UniProt O14733)
[24] = target: NTRK1 (human) (UniProt P04629)
[25] = target: TYRO3 (human) (UniProt Q06418)
[26] = target: TSSK2 (human) (UniProt Q96PF2)
[27] = target: SRPK2 (human) (UniProt P78362)
[28] = target: CDK6 CCND3 (human) (UniProt Q00534+P30281)
[29] = target: PASK (human) (UniProt Q96RG2)
[30] = target: TAOK3 (human) (UniProt Q9H2K8)
[31] = target: EPHA3 (human) (UniProt P29320)
[32] = test system: FLT3 (human), P36888 [D835Y]
[33] = target: PIM3 (human) (UniProt Q86V86)
[34] = target: NEK11 (human) (UniProt Q8NG66)
[35] = target: PRKCH (human) (UniProt P24723)
[36] = target: CSF1R (human) (UniProt P07333)
[37] = target: PRKG2 (human) (UniProt Q13237)
[38] = target: SRPK1 (human) (UniProt Q96SB4)
[39] = target: MAP3K9 (human) (UniProt P80192)
[40] = target: GSK3A (human) (UniProt P49840)
[41] = target: CDC42BPA (human) (UniProt Q5VT25)

Sequence of CSK (human) (P41240 whole entry, looked up): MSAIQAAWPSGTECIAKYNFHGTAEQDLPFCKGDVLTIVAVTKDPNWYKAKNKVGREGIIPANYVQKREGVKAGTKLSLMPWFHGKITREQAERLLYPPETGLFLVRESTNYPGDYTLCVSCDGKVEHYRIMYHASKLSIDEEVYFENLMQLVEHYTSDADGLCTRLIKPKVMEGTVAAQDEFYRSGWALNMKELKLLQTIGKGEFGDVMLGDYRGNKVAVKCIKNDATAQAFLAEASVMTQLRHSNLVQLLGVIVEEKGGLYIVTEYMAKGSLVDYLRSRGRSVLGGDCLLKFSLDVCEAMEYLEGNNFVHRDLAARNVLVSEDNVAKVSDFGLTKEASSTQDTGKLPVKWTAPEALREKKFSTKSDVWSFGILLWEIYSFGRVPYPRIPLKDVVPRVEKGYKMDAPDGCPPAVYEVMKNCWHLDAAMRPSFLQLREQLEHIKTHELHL
Sequence of IKBKB (human) (O14920 whole entry, looked up): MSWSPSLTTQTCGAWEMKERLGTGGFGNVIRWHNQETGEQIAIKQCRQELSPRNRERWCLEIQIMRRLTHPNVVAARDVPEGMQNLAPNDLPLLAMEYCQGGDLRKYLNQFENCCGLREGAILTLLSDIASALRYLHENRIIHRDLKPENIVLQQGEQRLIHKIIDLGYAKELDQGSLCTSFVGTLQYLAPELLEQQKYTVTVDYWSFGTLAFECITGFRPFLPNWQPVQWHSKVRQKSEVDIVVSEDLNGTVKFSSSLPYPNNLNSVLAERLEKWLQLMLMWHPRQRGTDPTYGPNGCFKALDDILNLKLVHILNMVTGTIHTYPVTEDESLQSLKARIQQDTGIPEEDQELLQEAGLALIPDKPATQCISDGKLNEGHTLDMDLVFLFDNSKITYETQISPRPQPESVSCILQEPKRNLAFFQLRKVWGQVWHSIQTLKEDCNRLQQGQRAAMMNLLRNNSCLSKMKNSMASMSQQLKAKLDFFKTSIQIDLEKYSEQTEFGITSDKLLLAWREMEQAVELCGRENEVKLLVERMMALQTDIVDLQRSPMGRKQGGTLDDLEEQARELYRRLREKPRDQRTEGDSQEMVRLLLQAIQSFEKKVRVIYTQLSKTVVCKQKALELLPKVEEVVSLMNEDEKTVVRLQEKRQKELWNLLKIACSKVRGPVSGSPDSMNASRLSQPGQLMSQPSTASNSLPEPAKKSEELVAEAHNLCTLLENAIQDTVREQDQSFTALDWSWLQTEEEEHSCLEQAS
Sequence of PKN2 (human) (Q16513 whole entry, looked up): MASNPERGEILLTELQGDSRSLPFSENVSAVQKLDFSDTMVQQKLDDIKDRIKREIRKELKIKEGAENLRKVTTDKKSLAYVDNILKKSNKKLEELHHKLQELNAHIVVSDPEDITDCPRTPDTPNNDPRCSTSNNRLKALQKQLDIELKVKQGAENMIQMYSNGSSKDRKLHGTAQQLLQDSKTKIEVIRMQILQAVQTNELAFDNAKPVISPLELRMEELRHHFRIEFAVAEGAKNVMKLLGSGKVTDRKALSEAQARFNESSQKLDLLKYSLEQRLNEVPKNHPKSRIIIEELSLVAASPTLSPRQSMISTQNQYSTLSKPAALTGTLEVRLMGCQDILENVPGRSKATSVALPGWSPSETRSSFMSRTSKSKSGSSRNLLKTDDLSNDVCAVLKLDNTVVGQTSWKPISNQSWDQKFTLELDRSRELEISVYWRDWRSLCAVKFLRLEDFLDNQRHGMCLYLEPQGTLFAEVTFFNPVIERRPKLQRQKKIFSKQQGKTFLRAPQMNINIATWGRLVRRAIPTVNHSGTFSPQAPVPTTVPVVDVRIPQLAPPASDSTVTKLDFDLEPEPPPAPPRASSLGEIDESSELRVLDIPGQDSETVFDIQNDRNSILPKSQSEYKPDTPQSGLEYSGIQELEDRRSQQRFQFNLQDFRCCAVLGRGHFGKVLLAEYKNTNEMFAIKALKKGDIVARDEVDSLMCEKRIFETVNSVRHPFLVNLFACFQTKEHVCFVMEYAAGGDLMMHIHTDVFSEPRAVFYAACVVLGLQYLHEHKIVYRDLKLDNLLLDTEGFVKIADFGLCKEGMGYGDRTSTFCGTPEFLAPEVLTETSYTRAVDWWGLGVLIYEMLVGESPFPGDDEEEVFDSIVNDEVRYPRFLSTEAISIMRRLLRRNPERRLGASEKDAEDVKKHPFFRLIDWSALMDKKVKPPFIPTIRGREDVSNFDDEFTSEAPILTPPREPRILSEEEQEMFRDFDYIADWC
Sequence of KIT (human), P10721 [V654A] (P10721 whole entry V654A, looked up): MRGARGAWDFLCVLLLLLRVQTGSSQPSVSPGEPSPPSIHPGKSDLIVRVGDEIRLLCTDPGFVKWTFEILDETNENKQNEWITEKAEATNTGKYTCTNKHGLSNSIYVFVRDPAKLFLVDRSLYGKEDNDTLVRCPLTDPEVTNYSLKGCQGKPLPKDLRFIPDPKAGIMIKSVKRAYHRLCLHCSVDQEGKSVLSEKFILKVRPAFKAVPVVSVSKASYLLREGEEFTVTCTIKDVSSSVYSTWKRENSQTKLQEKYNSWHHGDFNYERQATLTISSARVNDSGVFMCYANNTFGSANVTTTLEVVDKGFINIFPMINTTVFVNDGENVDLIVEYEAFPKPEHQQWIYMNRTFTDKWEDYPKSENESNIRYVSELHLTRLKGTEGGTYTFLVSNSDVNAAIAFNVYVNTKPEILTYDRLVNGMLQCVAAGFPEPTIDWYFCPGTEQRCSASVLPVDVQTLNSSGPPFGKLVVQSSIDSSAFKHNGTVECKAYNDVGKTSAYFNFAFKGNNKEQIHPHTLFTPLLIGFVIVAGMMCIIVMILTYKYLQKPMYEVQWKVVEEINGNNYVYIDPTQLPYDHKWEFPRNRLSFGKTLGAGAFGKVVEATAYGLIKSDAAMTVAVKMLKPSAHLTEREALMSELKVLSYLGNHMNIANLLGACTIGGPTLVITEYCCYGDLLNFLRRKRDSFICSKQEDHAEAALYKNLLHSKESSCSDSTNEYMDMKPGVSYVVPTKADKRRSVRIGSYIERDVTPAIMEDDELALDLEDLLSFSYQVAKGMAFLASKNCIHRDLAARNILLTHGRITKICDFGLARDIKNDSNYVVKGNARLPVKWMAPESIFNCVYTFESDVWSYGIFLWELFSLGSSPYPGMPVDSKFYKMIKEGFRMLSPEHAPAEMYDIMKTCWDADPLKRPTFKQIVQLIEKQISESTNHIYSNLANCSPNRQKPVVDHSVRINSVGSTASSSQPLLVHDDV
Sequence of MAP2K7 (human) (O14733 whole entry, looked up): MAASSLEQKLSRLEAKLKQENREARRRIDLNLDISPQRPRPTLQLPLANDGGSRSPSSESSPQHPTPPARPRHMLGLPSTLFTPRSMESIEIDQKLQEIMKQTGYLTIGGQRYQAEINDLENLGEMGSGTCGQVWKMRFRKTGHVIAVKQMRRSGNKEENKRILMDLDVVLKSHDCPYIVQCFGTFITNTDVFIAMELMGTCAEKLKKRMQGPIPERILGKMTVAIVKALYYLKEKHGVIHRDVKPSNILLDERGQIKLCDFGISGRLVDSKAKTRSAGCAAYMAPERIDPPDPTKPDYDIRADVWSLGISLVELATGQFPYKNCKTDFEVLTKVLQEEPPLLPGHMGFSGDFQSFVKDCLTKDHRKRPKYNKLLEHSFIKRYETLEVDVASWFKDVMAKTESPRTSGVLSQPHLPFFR
Sequence of FGFR2 (human), P21802 [N549H] (P21802 whole entry N549H, looked up): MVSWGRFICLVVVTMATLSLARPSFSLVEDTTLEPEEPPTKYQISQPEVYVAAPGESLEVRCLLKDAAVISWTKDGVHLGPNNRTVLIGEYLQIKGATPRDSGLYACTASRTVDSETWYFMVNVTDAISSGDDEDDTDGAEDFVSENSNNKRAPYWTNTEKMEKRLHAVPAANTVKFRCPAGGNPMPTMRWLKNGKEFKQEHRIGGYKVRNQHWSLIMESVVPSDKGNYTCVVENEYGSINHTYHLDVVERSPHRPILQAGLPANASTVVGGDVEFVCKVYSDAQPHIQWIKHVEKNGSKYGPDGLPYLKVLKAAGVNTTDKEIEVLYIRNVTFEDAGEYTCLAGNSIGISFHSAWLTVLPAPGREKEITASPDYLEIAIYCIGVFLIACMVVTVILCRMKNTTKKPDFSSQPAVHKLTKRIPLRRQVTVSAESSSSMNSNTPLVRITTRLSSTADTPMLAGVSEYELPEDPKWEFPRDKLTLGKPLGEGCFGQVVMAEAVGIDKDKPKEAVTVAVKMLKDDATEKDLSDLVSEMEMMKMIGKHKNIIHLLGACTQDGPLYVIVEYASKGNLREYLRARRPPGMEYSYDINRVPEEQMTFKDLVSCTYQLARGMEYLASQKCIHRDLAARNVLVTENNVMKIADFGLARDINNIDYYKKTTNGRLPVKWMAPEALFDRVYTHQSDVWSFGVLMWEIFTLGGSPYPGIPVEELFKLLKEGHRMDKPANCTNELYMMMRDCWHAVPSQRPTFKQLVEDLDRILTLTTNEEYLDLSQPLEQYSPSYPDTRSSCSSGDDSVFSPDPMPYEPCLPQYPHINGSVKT

Structure (SMILES): CC(C)(C)c1nc2c3ccc(F)cc3c3c(=O)[nH]ccc3c2[nH]1
- residual activity ([1]; compound 10.0 µM): 101%
- residual activity ([2]; compound 10.0 µM): 15%

Structure (SMILES): COc1ccc(C#Cc2ccc3ncc4ncn(-c5ccc(CCN)cc5)c4c3c2)cc1
- residual activity ([3]; compound 10.0 µM): 57%
- residual activity ([4]; compound 10.0 µM): 113%
- residual activity ([5]; compound 10.0 µM): 121%
- residual activity ([6]; compound 10.0 µM): 15%
- residual activity ([7]; compound 10.0 µM): 109%
- residual activity ([8]; compound 10.0 µM): 18%
- residual activity ([9]; compound 10.0 µM): 13%
- residual activity ([10]; compound 10.0 µM): 78%
- residual activity ([11]; compound 10.0 µM): 11%
- residual activity ([12]; compound 10.0 µM): 79%
- residual activity ([13]; compound 10.0 µM): 95%
- residual activity ([14]; compound 10.0 µM): 34%
- residual activity ([15]; compound 10.0 µM): 11%
- residual activity ([16]; compound 10.0 µM): 99%
- residual activity ([17]; compound 10.0 µM): 82%
- residual activity ([18]; compound 10.0 µM): 91%
- residual activity ([19]; compound 10.0 µM): 98%
- residual activity ([20]; compound 10.0 µM): 63%
- residual activity ([21]; compound 10.0 µM): 73%
- residual activity ([22]; compound 10.0 µM): 99%
- residual activity ([23]; compound 10.0 µM): 30%
- residual activity ([1]; compound 10.0 µM): 82%
- residual activity ([24]; compound 10.0 µM): 4%
- residual activity ([25]; compound 10.0 µM): 19%
- residual activity ([26]; compound 10.0 µM): 72%
- residual activity ([27]; compound 10.0 µM): 96%
- residual activity ([2]; compound 10.0 µM): 39%
- residual activity ([28]; compound 10.0 µM): 103%
- residual activity ([29]; compound 10.0 µM): 4%
- residual activity ([30]; compound 10.0 µM): 66%
- residual activity ([31]; compound 10.0 µM): 86%
- residual activity ([32]; compound 10.0 µM): 10%
- residual activity ([33]; compound 10.0 µM): 22%
- residual activity ([34]; compound 10.0 µM): 51%
- residual activity ([35]; compound 10.0 µM): 95%
- residual activity ([36]; compound 10.0 µM): 17%
- residual activity ([37]; compound 10.0 µM): 34%
- residual activity ([38]; compound 10.0 µM): 80%
- residual activity ([39]; compound 10.0 µM): 8%
- residual activity ([40]; compound 10.0 µM): 99%
- residual activity ([41]; compound 10.0 µM): 85%

Structure (SMILES): C[C@@H](Nc1nc2c(C#CC3CC3)c[nH]c(=O)c2c2cc(-c3cn[nH]c3)ccc12)C(C)(C)C
- residual activity ([3]; compound 1.0 µM): 101%
- residual activity ([4]; compound 1.0 µM): 132%
- residual activity ([5]; compound 1.0 µM): 103%
- residual activity ([6]; compound 1.0 µM): 90%
- residual activity ([7]; compound 1.0 µM): 63%
- residual activity ([8]; compound 1.0 µM): 93%
- residual activity ([9]; compound 1.0 µM): 10%
- residual activity ([10]; compound 1.0 µM): 85%
- residual activity ([11]; compound 1.0 µM): 23%
- residual activity ([12]; compound 1.0 µM): 74%
- residual activity ([13]; compound 1.0 µM): 107%
- residual activity ([14]; compound 1.0 µM): 46%
- residual activity ([15]; compound 1.0 µM): 25%
- residual activity ([16]; compound 1.0 µM): 92%
- residual activity ([17]; compound 1.0 µM): 104%
- residual activity ([18]; compound 1.0 µM): 108%
- residual activity ([19]; compound 1.0 µM): 99%
- residual activity ([20]; compound 1.0 µM): 104%
- residual activity ([21]; compound 1.0 µM): 122%
- residual activity ([22]; compound 1.0 µM): 96%
- residual activity ([23]; compound 1.0 µM): 107%
- residual activity ([1]; compound 1.0 µM): 75%
- residual activity ([24]; compound 1.0 µM): 10%
- residual activity ([25]; compound 1.0 µM): 94%
- residual activity ([26]; compound 1.0 µM): 106%
- residual activity ([27]; compound 1.0 µM): 107%
- residual activity ([2]; compound 1.0 µM): 92%
- residual activity ([28]; compound 1.0 µM): 102%
- residual activity ([29]; compound 1.0 µM): 109%
- residual activity ([30]; compound 1.0 µM): 104%
- residual activity ([31]; compound 1.0 µM): 111%
- residual activity ([32]; compound 1.0 µM): 9%
- residual activity ([33]; compound 1.0 µM): 96%
- residual activity ([34]; compound 1.0 µM): 116%
- residual activity ([35]; compound 1.0 µM): 109%
- residual activity ([36]; compound 1.0 µM): 10%
- residual activity ([37]; compound 1.0 µM): 88%
- residual activity ([38]; compound 1.0 µM): 104%
- residual activity ([39]; compound 1.0 µM): 1%
- residual activity ([40]; compound 1.0 µM): 107%
- residual activity ([41]; compound 1.0 µM): 111%
